This is an account of results in ChEMBL document CHEMBL4138141, “Rapid generation of a novel DPP-4 inhibitor with long-acting properties: SAR study and PK/PD evaluation” (Eur J Med Chem, 2017).

System in the first data set: not listed separately
Put plainly: Metabolic stability in dog liver microsomes assessed as parent compound remaining at […] incubated for 5 mins measured up to 60 mins by LC-MS/MS analysis. It is filed as ADME, Canis lupus familiaris, microsome. The following applies: read-out: Stability.
For the compound `Cn1c(=O)cc(N2CCC[C@@H](N)C2)n(Cc2cc(F)ccc2C#N)c1=O` [TRELAGLIPTIN], the remaining at 60 min was > 80%.

System in another data set: not listed separately
Put plainly: Half life in human liver microsomes at […] by LC-MS/MS analysis. It is filed as ADME, microsome.
Conditions: not given
Take `N#Cc1ccc(F)cc1Cn1c(N2CCC[C@@H](N)C2)nc2c(-c3cccs3)c[nH]c2c1=O`: the half-life is 0.585 h.

In the case of `CS(=O)(=O)c1cccc(-c2c[nH]c3c(=O)n(Cc4cc(F)ccc4C#N)c(N4CCC[C@@H](N)C4)nc23)c1`, the half-life was > 3.33 h.

Consider `CS(=O)(=O)c1ccccc1-c1c[nH]c2c(=O)n(Cc3cc(F)ccc3C#N)c(N3CCC[C@@H](N)C3)nc12`, for which the half-life was > 3.33 h.

For the compound `N#Cc1ccc(F)cc1Cn1c(N2CCC[C@@H](N)C2)nc2c(-c3ccsc3)c[nH]c2c1=O`, the half-life was found to be 2.67 h.

The compound `N#Cc1ccc(F)cc1Cn1c(N2CCC[C@@H](N)C2)nc2cc[nH]c2c1=O` came in with a half-life of 3.33 h.

Compound `N#Cc1ccc(F)cc1Cn1c(N2CCC[C@@H](N)C2)nc2c(-c3ccc(F)cc3)c[nH]c2c1=O` returned a half-life of 3.01 h.

As for `CS(=O)(=O)c1ccc(-c2c[nH]c3c(=O)n(Cc4cc(F)ccc4C#N)c(N4CCC[C@@H](N)C4)nc23)cc1`, the half-life was > 3.33 h.

As to `Cn1c(=O)cc(N2CCC[C@@H](N)C2)n(Cc2cc(F)ccc2C#N)c1=O` [TRELAGLIPTIN], the half-life is > 3.33 h.

With `CS(=O)(=O)c1ccc(-c2c[nH]c3c(=O)n(Cc4cc(F)ccc4C#N)c(N4CCC[C@@H](N)C4)nc23)c(F)c1`, the half-life is > 3.33 h.

`N#Cc1ccc(F)cc1Cn1c(N2CCC[C@@H](N)C2)nc2c(Br)c[nH]c2c1=O` showed a half-life of 2.21 h.

On to `CC(C)S(=O)(=O)c1ccc(-c2c[nH]c3c(=O)n(Cc4cc(F)ccc4C#N)c(N4CCC[C@@H](N)C4)nc23)cc1`, for which the half-life stood at 0.722 h.

Regarding `N#Cc1ccc(F)cc1Cn1c(N2CCC[C@@H](N)C2)nc2c(F)c[nH]c2c1=O`, the half-life was found to be 1.64 h.

Turning to `CS(=O)(=O)c1ccc(-c2c[nH]c3c(=O)n(Cc4cc(F)ccc4C#N)c(N4CCC[C@@H](N)C4)nc23)cc1F`, the half-life is > 3.33 h.

Regarding `N#Cc1ccc(F)cc1Cn1c(N2CCC[C@@H](N)C2)nc2c(-c3ccc(S(N)(=O)=O)cc3)c[nH]c2c1=O`, the half-life was > 3.33 h.

In the next data set the test system is Rattus norvegicus. Put plainly: AUC (0 to t) in Sprague-Dawley rat at 25 mg/kg, po administered as single dose by LC-MS/MS analysis. The following applies: in vivo. In kind it is ADME, organism-based.
Consider `N#Cc1ccc(F)cc1Cn1c(N2CCC[C@@H](N)C2)nc2c(-c3ccsc3)c[nH]c2c1=O`, for which the AUCt worked out at 2920 ng·h/mL.

The compound `N#Cc1ccc(F)cc1Cn1c(N2CCC[C@@H](N)C2)nc2cc[nH]c2c1=O` yielded an AUCt of 1880 ng·h/mL.

For the compound `Cn1c(=O)cc(N2CCC[C@@H](N)C2)n(Cc2cc(F)ccc2C#N)c1=O` [TRELAGLIPTIN], the AUCt turned out to be 6820 ng·h/mL.

System in a further data set: not listed separately
Put plainly: Metabolic stability in monkey liver microsomes assessed as parent compound remaining at […] incubated for 5 mins measured up to 60 mins by LC-MS/MS analysis. In kind it is ADME, Macaca mulatta, microsome. The following applies: rhesus monkey, read-out: Stability.
Take `Cn1c(=O)cc(N2CCC[C@@H](N)C2)n(Cc2cc(F)ccc2C#N)c1=O` [TRELAGLIPTIN]: the remaining at 60 min was > 80%.

In another data set the test system is Rattus norvegicus. Briefly: Oral bioavailability in Sprague-Dawley rat at 25 mg/kg administered as single dose by LC-MS/MS analysis. It is filed as ADME, organism-based. Conditions: in vivo.
As to `N#Cc1ccc(F)cc1Cn1c(N2CCC[C@@H](N)C2)nc2c(-c3ccsc3)c[nH]c2c1=O`, the F worked out at 33.4%.

Consider `N#Cc1ccc(F)cc1Cn1c(N2CCC[C@@H](N)C2)nc2cc[nH]c2c1=O`, for which the F came out at 10.6%.

`Cn1c(=O)cc(N2CCC[C@@H](N)C2)n(Cc2cc(F)ccc2C#N)c1=O` [TRELAGLIPTIN] displayed an F of 46.9%.

System in the next data set: not listed separately
Put plainly: Half life in rat liver microsomes at […] by LC-MS/MS analysis. In kind it is ADME, microsome.
Conditions: not given
Take `N#Cc1ccc(F)cc1Cn1c(N2CCC[C@@H](N)C2)nc2c(-c3cccs3)c[nH]c2c1=O`: the half-life worked out at 0.609 h.

`CS(=O)(=O)c1cccc(-c2c[nH]c3c(=O)n(Cc4cc(F)ccc4C#N)c(N4CCC[C@@H](N)C4)nc23)c1` registered a half-life of 1.65 h.

With `CS(=O)(=O)c1ccccc1-c1c[nH]c2c(=O)n(Cc3cc(F)ccc3C#N)c(N3CCC[C@@H](N)C3)nc12`, the half-life was found to be 3.28 h.

For the compound `N#Cc1ccc(F)cc1Cn1c(N2CCC[C@@H](N)C2)nc2c(-c3ccsc3)c[nH]c2c1=O`, the half-life was found to be 0.783 h.

Take `N#Cc1ccc(F)cc1Cn1c(N2CCC[C@@H](N)C2)nc2cc[nH]c2c1=O`: the half-life is > 1 h.

Compound `N#Cc1ccc(F)cc1Cn1c(N2CCC[C@@H](N)C2)nc2c(-c3ccc(F)cc3)c[nH]c2c1=O` came in with a half-life of 1.2 h.

Regarding `CS(=O)(=O)c1ccc(-c2c[nH]c3c(=O)n(Cc4cc(F)ccc4C#N)c(N4CCC[C@@H](N)C4)nc23)cc1`, the half-life was > 3.33 h.

On to `Cn1c(=O)cc(N2CCC[C@@H](N)C2)n(Cc2cc(F)ccc2C#N)c1=O` [TRELAGLIPTIN], for which the half-life was > 3.33 h.

Turning to `CS(=O)(=O)c1ccc(-c2c[nH]c3c(=O)n(Cc4cc(F)ccc4C#N)c(N4CCC[C@@H](N)C4)nc23)c(F)c1`, the half-life is 1.59 h.

For `N#Cc1ccc(F)cc1Cn1c(N2CCC[C@@H](N)C2)nc2c(Br)c[nH]c2c1=O`, the half-life was found to be 0.625 h.

Regarding `CC(C)S(=O)(=O)c1ccc(-c2c[nH]c3c(=O)n(Cc4cc(F)ccc4C#N)c(N4CCC[C@@H](N)C4)nc23)cc1`, the half-life was > 3.33 h.

Compound `N#Cc1ccc(F)cc1Cn1c(N2CCC[C@@H](N)C2)nc2c(F)c[nH]c2c1=O` gave a half-life of 0.838 h.

In turn, `CS(=O)(=O)c1ccc(-c2c[nH]c3c(=O)n(Cc4cc(F)ccc4C#N)c(N4CCC[C@@H](N)C4)nc23)cc1F` yielded a half-life of 2.78 h.

Consider `N#Cc1ccc(F)cc1Cn1c(N2CCC[C@@H](N)C2)nc2c(-c3ccc(S(N)(=O)=O)cc3)c[nH]c2c1=O`, for which the half-life is > 3.33 h.

System in the next data set: not listed separately
Put plainly: Half life in Sprague-Dawley rat at 25 mg/kg, po administered as single dose by LC-MS/MS analysis. In kind it is ADME, organism-based. Conditions: in vivo.
Consider `N#Cc1ccc(F)cc1Cn1c(N2CCC[C@@H](N)C2)nc2c(-c3ccsc3)c[nH]c2c1=O`, for which the half-life is 7.89 h.

On to `N#Cc1ccc(F)cc1Cn1c(N2CCC[C@@H](N)C2)nc2cc[nH]c2c1=O`, for which the half-life is 5.46 h.

`Cn1c(=O)cc(N2CCC[C@@H](N)C2)n(Cc2cc(F)ccc2C#N)c1=O` [TRELAGLIPTIN] had a half-life of 5.13 h.

System in a further data set: not listed separately
Briefly: Metabolic stability in human liver microsomes assessed as parent compound remaining at […] incubated for 5 mins measured up to 60 mins by LC-MS/MS analysis. It is filed as ADME, microsome. Conditions: read-out: Stability.
Regarding `Cn1c(=O)cc(N2CCC[C@@H](N)C2)n(Cc2cc(F)ccc2C#N)c1=O` [TRELAGLIPTIN], the remaining at 60 min was > 80%.

The next data set deals with Rattus norvegicus. Put plainly: Clearance in Sprague-Dawley rat at 25 mg/kg, po or 5 mg/kg, iv administered as single dose by LC-MS/MS analysis. In kind it is ADME, organism-based. Conditions: in vivo.
As to `N#Cc1ccc(F)cc1Cn1c(N2CCC[C@@H](N)C2)nc2c(-c3ccsc3)c[nH]c2c1=O`, the CL was 147 mL/min/kg.

Regarding `N#Cc1ccc(F)cc1Cn1c(N2CCC[C@@H](N)C2)nc2cc[nH]c2c1=O`, the CL came to 222 mL/min/kg.

As for `Cn1c(=O)cc(N2CCC[C@@H](N)C2)n(Cc2cc(F)ccc2C#N)c1=O` [TRELAGLIPTIN], the CL came out at 128 mL/min/kg.

System in another data set: not listed separately
Briefly: Metabolic stability in mouse liver microsomes assessed as parent compound remaining at […] incubated for 5 mins measured up to 60 mins by LC-MS/MS analysis. It is filed as ADME, microsome. Conditions: read-out: Stability.
In the case of `Cn1c(=O)cc(N2CCC[C@@H](N)C2)n(Cc2cc(F)ccc2C#N)c1=O` [TRELAGLIPTIN], the remaining at 60 min is > 80%.

System in another data set: not listed separately
Put plainly: Metabolic stability in rat liver microsomes assessed as parent compound remaining at […] incubated for 5 mins measured up to 60 mins by LC-MS/MS analysis. It is filed as ADME, microsome. Conditions: read-out: Stability.
Turning to `Cn1c(=O)cc(N2CCC[C@@H](N)C2)n(Cc2cc(F)ccc2C#N)c1=O` [TRELAGLIPTIN], the remaining at 60 min is > 80%.

System in the next data set: not listed separately
Put plainly: Apparent volume of distribution during terminal phase in Sprague-Dawley rat at 25 mg/kg, po or 5 mg/kg, iv administered as single dose by LC-MS/MS analysis. It is filed as ADME, organism-based. The following applies: in vivo, read-out: Vz/F.
For `N#Cc1ccc(F)cc1Cn1c(N2CCC[C@@H](N)C2)nc2c(-c3ccsc3)c[nH]c2c1=O`, the Vd/F stood at 104 L/kg.

`N#Cc1ccc(F)cc1Cn1c(N2CCC[C@@H](N)C2)nc2cc[nH]c2c1=O`: the Vd/F turned out to be 106 L/kg.

As to `Cn1c(=O)cc(N2CCC[C@@H](N)C2)n(Cc2cc(F)ccc2C#N)c1=O` [TRELAGLIPTIN], the Vd/F was found to be 48.2 L/kg.

System in another data set: not listed separately
Briefly: Tmax in Sprague-Dawley rat at 25 mg/kg, po or 5 mg/kg, iv administered as single dose by LC-MS/MS analysis. In kind it is ADME, organism-based. Conditions: in vivo.
For `N#Cc1ccc(F)cc1Cn1c(N2CCC[C@@H](N)C2)nc2c(-c3ccsc3)c[nH]c2c1=O`, the Tmax was 2.33 h.

On to `N#Cc1ccc(F)cc1Cn1c(N2CCC[C@@H](N)C2)nc2cc[nH]c2c1=O`, for which the Tmax is 0.14 h.

For the compound `Cn1c(=O)cc(N2CCC[C@@H](N)C2)n(Cc2cc(F)ccc2C#N)c1=O` [TRELAGLIPTIN], the Tmax came out at 0.7 h.
